Common to all, as to type: cell-based
The subject of one assay is Klebsiella. Kind of assay: Agar dilution MIC, Klebsiella. The settings on record: Table I, strain X26. An excerpt:
(§1) A typical and preferred compound provided by this invention is 7-(2-naphthylglycylamido)-3-methyl-3-cephem-4-carboxylic acid, the compound of Example 3. The antibacterial activity of this compound and several others of the invention has been determined in standard in vitro agar dilution assays against a variety of gram positive microorganisms. The following Tables present typical minimum inhibitory concentrations (MIC's) in μg/ml for the compounds when evaluated against the indicated microorganisms. MIC's for several known compounds are also presented for comparison.

Another assay relates to Staph. aureus. Kind of assay: Agar dilution MIC, Staph. aureus. To be noted: Table I. From the text: (§2) The following Tables present typical minimum inhibitory concentrations (MIC's) in μg/ml for the compounds when evaluated against the indicated microorganisms.
A general note: In agar dilution, organisms are placed on agar that contains the substance at set levels.

The next assay relates to Strep. A. The assay is described as follows: Agar dilution MIC, Strep. A. To be noted: Table I, strain C203.
Text: as §1

In another assay the test system is Staph. epi. Kind of assay: Agar dilution MIC, Staph. epi. To be noted: Table I.
Text: as §2

The next assay concerns Strep. PN. Kind of assay: Agar dilution MIC, Strep. PN. To be noted: Table I, strain PARK.
Text: as §2

The next assay has as its system H. influ. The assay is described as follows: Agar dilution MIC, H. influenza. The settings on record: Table I.
Text: as §2

≈ marks a conversion by molar mass, not a printed value. Counter-ions that a name gives are not always drawn. Like-named read-outs stand apart in the source and are kept apart here.

`COC1=C(C(=O)O)N2C(=O)C(NC(=O)C(N)c3ccc4ccccc4c3)C2SC1` (racemic) [Example 6, 7-(2-Naphthylglycylamido)-3-methoxy-3-cephem-4-carboxylic acid trifluoroacetate]: the MIC was determined as 8 mg/L in the assay on Klebsiella (Klebsiella, read-out: MIC); 32 mg/L in the assay on Staph. aureus (Staphylococcus aureus, strain S13E); 32 mg/L in the assay on Staph. aureus (Staphylococcus aureus, strain V41, read-out: MIC); 1 mg/L in the assay with Staph. aureus (Staphylococcus aureus, strain X1.1, read-out: MIC); 0.125 mg/L in the assay on Strep. A (read-out: MIC); 2 mg/L with Staph. epi (strain 222, read-out: MIC). The MIC in the assay on Staph. epi (strain EPI1, read-out: MIC) is 8 mg/L; in the assay on Strep. PN (read-out: MIC), greater than 138 mg/L; with H. influ. (strain 251, read-out: MIC) it was 32 mg/L.

In the case of `CC1(C)S[C@@H]2[C@H](NC(=O)[C@H](N)c3ccccc3)C(=O)N2[C@H]1C(=O)O` [Ampicillin, reference compound], the MIC in the assay with Klebsiella (Klebsiella, read-out: MIC) was found to be 16 mg/L (≈ 45.8 µM); in the assay with Strep. A (read-out: MIC) it was 0.03 mg/L (≈ 0.0859 µM); in the assay with Staph. epi (strain EPI1, read-out: MIC) it was 8 mg/L (≈ 22.9 µM); in the assay on Strep. PN (read-out: MIC) it was 0.03 mg/L (≈ 0.0859 µM); in the assay on H. influ. (strain 251, read-out: MIC), 16 mg/L (≈ 45.8 µM); in the assay on H. influ. (strain BRUN, read-out: MIC) it was 0.5 mg/L (≈ 1.43 µM).

`N[C@@H](C(=O)N[C@@H]1C(=O)N2C(C(=O)O)=C(Cl)CS[C@H]12)c1ccc2ccccc2c1` [Ex. 5A, D-7-(2-naphthylglycylamido)-3-chloro-3-cephem-4-carboxylic acid]: the MIC against Klebsiella amounted to 2 mg/L (≈ 4.79 µM); with Staph. aureus (strain S13E) it was 16 mg/L (≈ 38.3 µM); with Staph. aureus (strain V41) it was 16 mg/L (≈ 38.3 µM); in the assay on Strep. A, 0.125 mg/L (≈ 0.299 µM); against Staph. epi (strain EPI1), 2 mg/L (≈ 4.79 µM); in the assay on Strep. PN, 0.125 mg/L (≈ 0.299 µM). In addition, the MIC with H. influ. (strain 251) turned out to be 2 mg/L (≈ 4.79 µM); against H. influ. (strain BRUN), 4 mg/L (≈ 9.57 µM).

`N[C@H](C(=O)N[C@@H]1C(=O)N2C(C(=O)O)=C(Cl)CS[C@H]12)c1ccc2ccccc2c1` [Ex. 5B, L-7-(2-naphthylglycylamido)-3-chloro-3-cephem-4-carboxylic acid]: the MIC in the assay on Klebsiella came out at 2 mg/L (≈ 4.79 µM); in the assay with Staph. aureus (strain X1.1), 8 mg/L (≈ 19.1 µM); against Strep. A, 4 mg/L (≈ 9.57 µM); in the assay with Staph. epi (strain 222), 4 mg/L (≈ 9.57 µM); in the assay on Staph. epi (strain EPI1) it was 32 mg/L (≈ 76.6 µM); in the assay with H. influ. (strain 251), 16 mg/L (≈ 38.3 µM).

Values taken from US4490370A, “Naphthylglycyl cephalosporin derivatives” (priority 1983, dated 1984).
